Here are results for one molecule from US20160082015A1, “METHODS, COMPOSITIONS AND KITS FOR PROMOTING MOTOR NEURON SURVIVAL AND TREATING AND DIAGNOSING NEURODEGENERATIVE DISORDERS” (PRESIDENT AND FELLOWS OF HARVARD COLLEGE, priority 2013, published 2016).

One test has as its system HB9::GFP MNs. The test is described as follows: MN death induced by PI3K inhibitor LY294002. The test is classed as cell-based. To be noted: 10 μM co-incubated with LY294002. The method, then: (§1) FIGS. 3A and 3B show line graphs showing effects of kenpaullone and GSK-3 inhibitor VIII on MN death induced by treatment with a PI3K inhibitor. LY294002 was added to cultures on day 4, with or without concurrent treatment with 10 μM kenpaullone or 10 μM GSK-3 inhibitor VIII. Cells were fixed on day 7 for survival analysis. Survival is measured with respect to cells treated with DMSO alone. FIG. 3C is a bar graph showing that Kenpaullone also blocks death of MNs accelerated by co-culture with SOD1^G93A astrocytes. Hb9:GFP MNs were FACS sorted and plated on a confluent monolayer of wild-type or SOD1^G93A astrocytes. Kenpaullone was added to cultures 24 hrs later and was refreshed every three days by replacing half of the old medium with fresh medium containing IX concentration of the compound. Cells were fixed after nine days of compound treatment and MN survival was determined. Trophic factors were present throughout the experiment. Data are presented as percent survival normalized to that of DMSO treated MNs plated on wild-type astrocytes. Again, kenpaullone was effective in decreasing the extent of death. * p<0.05, ** p<0.01, *** p<0.001 (Student's t test, two-tailed). Data are presented as mean±SEM.
(§2) The PI3K/Akt pathway is well known to regulate neuronal survival including that of MNs (Brunet et al., 2001; Barthélémy et al., 2004). […] The inventors sought to examine if either kenpaullone or a more specific GSK-3 inhibitor (Inhibitor VIII) could protect MNs from death caused by inactivation of PI3K/AKT. […] Thus kenpaullone's effects are not restricted to protection after trophic factor withdrawal.

The next test relates to SOD1^G93A/HB9::GFP MNs. The test is described as follows: MN death induced by PI3K inhibitor LY294002. The class given is cell-based. Conditions: 10 μM co-incubated with LY294002. The method, then: as §1, §2
In another test the test system is Hb9:GFP MNs. Briefly: MN survival in co-culture with wild-type or SOD1^G93A astrocytes. The class given is cell-based, mouse. To be noted: nine days of compound treatment, trophic factors present. As to the method:
as §1, with “mean±SEM. […]” for “mean±SEM.”

In test [1] the test system is GSK-3-deficient MN cultures. Briefly: MN survival using GSK-3 knockout lines. The class given is cell-based, mouse. To be noted: trophic factors withdrawn. The source says: In these cultures, approximately 70% of Isl+/MAP2+ cells were GFP+(i.e., MNs). However, after trophic factor withdrawal, because MNs die selectively under these conditions, only about 50% of Isl+/MAP2+ cells were GFP+MNs. This means that counting Isl+/MAP2+ cells could overestimate the amount of survival after trophic factor withdrawal by approximately 40%. When deprived of neurotrophins, 35% of wild-type Isl+/MAP2+ cells survived, while 44%, 57% and 54% of Isl+/MAP2+ cells in GSK-3[…]-KO, GSK-3[…]-KO and 3/4-KO cultures survived. Using the correction factor for overcounting surviving MNs, this would mean that wild-type MN survival would be approximately 25%, while the KO MNs would have 31%, 41% and 39% survival, respectively.
The inventors used another approach to address the issue of GSK-3 and survival. The inventors produced MNs from the following mouse ESC lines: GSK-3α^−/− (GSK-3α-KO), GSK-3^−/− (GSK-3β-KO), and GSK-3α^+/−/GSK-3β^−/− (3/4-KO). Note that ESCs that are GSK-3α^−/−/GSK-3β^−/− were not able to differentiate into neurons (Doble et al., 2007). Cell death was again initiated by withdrawal of trophic factors and the ability of kenpaullone to promote survival was evaluated. […] The inventors validated this staining method using MN cultures prepared from Hb9::GFP ESCs. In these cultures, approximately 70% of Isl^+/MAP2^+ cells were GFP^+ (i.e., MNs). […]

Test [2] concerns site-specific phosphorylation of kinases in MN cultures. The test is described as follows: Phospho-Kinase Antibody Array. The class given is cell-based, mouse. The method, then: Freshly dissociated HB9::GFP EBs were plated at a density of 3 million GFP+ cells/10 cm dish and trophic factor withdrawal/compound addition was performed on day 4. Protein lysates were generated 6 and 24 h after treatment using RIPA buffer supplemented with protease and phosphatase inhibitors (Pierce Biotechnology). Equal amounts of total protein from treatment groups were added to Phospho-Kinase Antibody Arrays (R&D Systems, #ARY003). Arrays were prepared following the manufacturer's instructions and developed with SuperSignal West Pico Chemiluminescent Substrate (Pierce Biotechnology). Background signal was subtracted and duplicate spot pixel densities were averaged using QuantityOne software (BioRad).

A further test deals with HGK (Homo sapiens, UniProt O95819). The test is described as follows: Kinase activity assay with MBP substrate. To be noted: recombinant kinase, myelin basic protein substrate. The class given is biochemical. The source says: (§3) The enzymatic reaction was stopped with Laemmli buffer and samples were separated in a polyacrylamide gel. Finally, the gel was exposed to a Storage Phosphor Screen (GE Healthcare) and scanned in a Typhoon 9400 scanner (GE Healthcare). Signal density was estimated with Quantity One software (Bio-Rad).
Sequence of HGK (O95819 whole entry): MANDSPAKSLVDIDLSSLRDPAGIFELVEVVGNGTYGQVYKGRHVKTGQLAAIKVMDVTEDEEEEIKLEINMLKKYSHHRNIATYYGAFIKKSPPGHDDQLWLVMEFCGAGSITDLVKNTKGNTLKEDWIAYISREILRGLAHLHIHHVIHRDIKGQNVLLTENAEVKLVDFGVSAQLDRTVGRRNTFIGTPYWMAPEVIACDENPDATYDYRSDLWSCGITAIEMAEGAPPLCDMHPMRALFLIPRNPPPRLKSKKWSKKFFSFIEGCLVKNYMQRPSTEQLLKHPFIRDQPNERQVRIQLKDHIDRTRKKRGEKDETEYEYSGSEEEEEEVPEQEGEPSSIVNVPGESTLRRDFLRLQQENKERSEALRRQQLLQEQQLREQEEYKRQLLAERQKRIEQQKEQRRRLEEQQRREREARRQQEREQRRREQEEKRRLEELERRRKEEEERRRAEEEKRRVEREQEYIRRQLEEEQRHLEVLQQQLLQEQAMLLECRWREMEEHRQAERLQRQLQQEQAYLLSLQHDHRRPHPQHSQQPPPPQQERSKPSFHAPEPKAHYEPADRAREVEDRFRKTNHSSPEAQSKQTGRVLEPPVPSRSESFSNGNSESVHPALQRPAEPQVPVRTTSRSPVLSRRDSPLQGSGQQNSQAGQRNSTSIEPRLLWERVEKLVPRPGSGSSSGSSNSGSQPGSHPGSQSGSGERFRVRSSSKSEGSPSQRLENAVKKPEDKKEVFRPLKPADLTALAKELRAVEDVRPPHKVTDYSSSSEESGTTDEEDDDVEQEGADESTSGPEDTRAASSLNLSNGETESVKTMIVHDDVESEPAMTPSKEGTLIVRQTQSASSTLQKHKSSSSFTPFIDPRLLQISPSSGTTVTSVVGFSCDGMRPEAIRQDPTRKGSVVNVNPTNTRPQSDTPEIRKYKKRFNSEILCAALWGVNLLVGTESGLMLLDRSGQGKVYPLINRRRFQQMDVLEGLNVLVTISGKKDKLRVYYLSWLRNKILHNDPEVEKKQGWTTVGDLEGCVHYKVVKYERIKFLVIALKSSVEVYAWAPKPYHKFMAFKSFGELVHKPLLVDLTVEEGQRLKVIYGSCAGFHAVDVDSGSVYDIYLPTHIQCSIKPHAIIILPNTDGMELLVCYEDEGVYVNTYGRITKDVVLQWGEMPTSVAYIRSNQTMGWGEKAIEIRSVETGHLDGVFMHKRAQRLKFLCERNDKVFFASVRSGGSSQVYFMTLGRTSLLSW

A further test has as its target T1, MLK3 (Homo sapiens, UniProt Q16584).
T1 construct: purchased SignalChem
The test is described as follows: Kinase activity assay with MBP substrate. The class given is biochemical. Conditions: recombinant kinase, myelin basic protein substrate.
Text: as §3

Another test has as its system PAK 4, 5 and 6. Conditions: cited from earlier work.

Entries after “also recorded” stand apart in the source; their conditions may differ.

T1 sequence (Q16584 whole entry): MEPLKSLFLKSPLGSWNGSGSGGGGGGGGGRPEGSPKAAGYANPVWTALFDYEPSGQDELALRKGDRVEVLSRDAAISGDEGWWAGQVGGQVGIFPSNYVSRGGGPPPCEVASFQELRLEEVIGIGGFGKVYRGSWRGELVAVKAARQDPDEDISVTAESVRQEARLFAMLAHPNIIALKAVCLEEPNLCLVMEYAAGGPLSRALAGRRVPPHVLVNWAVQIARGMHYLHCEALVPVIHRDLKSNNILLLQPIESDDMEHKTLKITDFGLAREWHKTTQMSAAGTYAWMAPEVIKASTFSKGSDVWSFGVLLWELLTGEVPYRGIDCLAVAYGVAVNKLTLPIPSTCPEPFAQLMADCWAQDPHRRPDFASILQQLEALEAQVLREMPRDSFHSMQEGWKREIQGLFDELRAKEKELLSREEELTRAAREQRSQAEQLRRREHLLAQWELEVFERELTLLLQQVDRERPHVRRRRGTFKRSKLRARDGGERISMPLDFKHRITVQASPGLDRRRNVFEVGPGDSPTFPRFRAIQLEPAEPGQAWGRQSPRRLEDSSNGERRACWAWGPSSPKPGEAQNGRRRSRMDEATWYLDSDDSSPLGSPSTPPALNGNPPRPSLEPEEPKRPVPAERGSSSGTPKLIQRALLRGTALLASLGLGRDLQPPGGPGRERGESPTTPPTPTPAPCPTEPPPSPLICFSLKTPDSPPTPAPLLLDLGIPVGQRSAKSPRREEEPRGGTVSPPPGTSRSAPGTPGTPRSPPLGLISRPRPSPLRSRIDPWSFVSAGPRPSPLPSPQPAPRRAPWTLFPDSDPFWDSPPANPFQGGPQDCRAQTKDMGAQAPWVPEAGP

In the case of `O=C1Cc2c([nH]c3ccc(Br)cc23)-c2ccccc2N1` [Kenpaullone], in the test on HB9::GFP MNs, the “protection from LY294002-induced MN death” value is on record as “significantly attenuated”. Besides, the “protection from LY294002-induced MN death” value in the test on SOD1^G93A/HB9::GFP MNs is on record as “significantly attenuated”. In the test with Hb9:GFP MNs, the “MN survival on SOD1^G93A astrocytes” value is given as “improved survival” and the “MN survival on wild-type astrocytes” value is on record as “improved survival”. Besides, the “MN survival in GSK-3-deficient cultures” value in test [1] was “still active”. Further, in test [2], the “relative phosphorylation of GSK-3” value is “significant reduction”, the “relative phosphorylation of c-Jun” value is recorded as “reduction” and the “relative phosphorylation of cJun N-terminal kinase (JNK)” value is “reduction”. Moreover, the HGK activity entry on HGK was “inhibited; also recorded: strongly inhibits”. Further, on MLK3, the MLK3 activity entry is listed as “not”. Further, the “inhibition of PAK 4, 5 and 6” value with PAK 4, 5 and 6 was “inhibits”.
